Data from patent publication US20230159509A1 (Amathus Therapeutics, Inc., priority 2020, published 2023).

Target: T1, TRAP1 enzyme (Homo sapiens, UniProt Q12931)
T1 construct: 150 nM Trap1 enzyme was incubated with various concentrations of the test compound
T1 sequence (Q12931 60-704): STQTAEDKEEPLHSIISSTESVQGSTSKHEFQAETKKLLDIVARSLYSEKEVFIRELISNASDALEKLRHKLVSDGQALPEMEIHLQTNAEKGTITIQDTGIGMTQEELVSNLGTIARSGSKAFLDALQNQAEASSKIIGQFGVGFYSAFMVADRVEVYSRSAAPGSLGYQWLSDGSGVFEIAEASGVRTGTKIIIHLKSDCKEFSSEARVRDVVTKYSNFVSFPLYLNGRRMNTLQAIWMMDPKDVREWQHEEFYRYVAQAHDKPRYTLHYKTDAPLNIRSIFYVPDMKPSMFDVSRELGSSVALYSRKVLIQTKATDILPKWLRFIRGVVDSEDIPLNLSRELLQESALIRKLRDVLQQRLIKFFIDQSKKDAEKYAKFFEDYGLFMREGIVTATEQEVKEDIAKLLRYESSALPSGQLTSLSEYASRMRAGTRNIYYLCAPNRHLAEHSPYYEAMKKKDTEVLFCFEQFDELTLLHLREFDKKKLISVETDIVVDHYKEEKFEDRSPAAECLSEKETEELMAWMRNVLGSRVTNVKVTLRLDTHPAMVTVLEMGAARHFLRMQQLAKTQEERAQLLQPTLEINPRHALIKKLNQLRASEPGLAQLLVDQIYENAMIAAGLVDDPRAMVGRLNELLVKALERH
Assay: ADP Glo assay of TRAP1 ATPase activity
Format: biochemical
Conditions: for EC50: concentration for half maximal activation, read-out: ADP GLO DRC: GeoMean EC50; for Emax: maximal percent activation, read-out: ADP GLO DRC: Mean Emax
Method: Potency of test compounds to modulate the ATPase activity of TRAP1 enzyme was evaluated using ADP Glo assay. The assay is based on quantification of the ADP generated from ATP in the ATPase reaction. The assay is performed in two steps; first, after the ATPase reaction an equal volume of ADP-Glo™ Reagent is added to terminate the ATPase reaction and deplete the remaining ATP. Second, the Kinase Detection Reagent is added to simultaneously convert ADP to ATP and allow the newly synthesized ATP to be measured using a luciferase/luciferin reaction.
All the assays were carried out in a 384-well Proxiplate. The buffer used was 25 mM Pipes pH-7.5, 40 mM KCl, 0.05 mM MgCl2, 0.025% BSA, 0.316 mM EGTA, 0.003% Empigen, 0.01% Igepal. 150 nM Trap1 enzyme was incubated with various concentrations of the test compound (0.79 μM-100 μM) at 37° C. for 30 mins (except in blank wells). 20 μM ATP was added to each well to start the reaction. The plate was spun for 1 min at 1200 rpm and then incubated at 37° C. for 60 mins. 5 μl of ADP Glo reagent was added to all the wells and spun the plate for 1 min at 1200 rpm and kept it on a shaker at ambient temperature for 60 mins. 10 μl of kinase detection mix was added to all the wells and the plate was read for Luminescence at 495 nm. The amount of ADP released was estimated from ATP/ADP standard curve generated at the same experimental conditions. Emax (Maximal percent activation) and EC50 (concentration for half maximal activation) were estimated by fitting the dose response data to a sigmoidal curve fitting equation using Graphpad Prism software V. 8.

SMILES	EC50 [µM]	Emax [%]
COc1ncc(NC(=O)c2csc(-c3ccccc3)n2)cc1S(=O)(=O)Nc1cccc(C#N)c1C [compound 1406, N-(5-(N-(3-cyano-2-methylphenyl)sulfamoyl)-6-methoxypyridin-3-yl)-2-phenylthiazole-4-carboxamide]	< 10	119 to 159
COc1ncc(NC(=O)c2csc(-c3ccc(F)cc3)n2)cc1S(=O)(=O)Nc1c(C)cccc1C [compound 1413, N-(5-(N-(2,6-dimethylphenyl)sulfamoyl)-6-methoxypyridin-3-yl)-2-(4-fluorophenyl)thiazole-4-carboxamide]	< 10	119 to 159
COc1ncc(NC(=O)c2csc(-c3ccccc3)n2)cc1S(=O)(=O)Nc1c(C)nn(C)c1C [compound 1417, N-(6-methoxy-5-(N-(1,3,5-trimethyl-1H-pyrazol-4-yl)sulfamoyl)pyridin-3-yl)-2-phenylthiazole-4-carboxamide]	20 to 100	200 to 300
CCc1cccc(CC)c1NS(=O)(=O)c1cc(NC(=O)c2csc(-c3ccccc3)n2)cnc1OC [compound 1418, N-(5-(N-(2,6-diethylphenyl)sulfamoyl)-6-methoxypyridin-3-yl)-2-phenylthiazole-4-carboxamide]	< 10	119 to 159
Cc1c[n+]([O-])c(NC(=O)c2ncc(-c3ccccc3)o2)cc1S(=O)(=O)Nc1ccc(Cl)cc1 [compound 1420, 4-(N-(4-chlorophenyl)sulfamoyl)-5-methyl-2-(5-phenyloxazole-2-carboxamido) pyridine 1-oxide]	10 to 20	119 to 159
COc1ncc(NC(=O)c2noc3ccccc23)cc1S(=O)(=O)Nc1c(C)cccc1C [compound 1421, N-(5-(N-(2,6-dimethylphenyl)sulfamoyl)-6-methoxypyridin-3-yl) benzo[d]isoxazole-3-carboxamide]	< 10	200 to 300
COc1ncc(NC(=O)c2nn(C)c3ccccc23)cc1S(=O)(=O)Nc1c(C)cccc1C [compound 1423, N-(5-(N-(2,6-dimethylphenyl)sulfamoyl)-6-methoxypyridin-3-yl)-1-methyl-1H-indazole-3-carboxamide]	< 10	160 to 199
COc1ncc(NC(=O)c2nn(C)c3c2CCCC3)cc1S(=O)(=O)Nc1c(C)cccc1C [compound 1424, N-(5-(N-(2,6-dimethylphenyl)sulfamoyl)-6-methoxypyridin-3-yl)-1-methyl-4,5,6,7-tetrahydro-1H-indazole-3-carboxamide]	10 to 20	200 to 300
COc1ncc(NC(=O)c2csc3c2CCC3)cc1S(=O)(=O)Nc1c(C)cccc1C [compound 1425, N-(5-(N-(2,6-dimethylphenyl)sulfamoyl)-6-methoxypyridin-3-yl)-5,6-dihydro-4H-cyclopenta[b]thiophene-3-carboxamide]	< 10	160 to 199
COc1ncc(NC(=O)c2cnc(-c3ccccc3)[nH]2)cc1S(=O)(=O)Nc1ccc(Cl)cc1 [compound 1481, N-(5-(N-(4-chlorophenyl)sulfamoyl)-6-methoxypyridin-3-yl)-2-phenyl-1H-imidazole-5-carboxamide]	10 to 20	160 to 199
COc1cccc(C)c1NS(=O)(=O)c1cc(NC(=O)c2coc(-c3ccccc3)n2)cnc1OC [compound 1484, N-(6-methoxy-5-(N-(2-methoxy-6-methylphenyl)sulfamoyl)pyridin-3-yl)-2-phenyloxazole-4-carboxamide]	< 10	160 to 199
COc1ncc(NC(=O)c2coc(-c3ccccc3)n2)cc1S(=O)(=O)Nc1c(C)cccc1F [compound 1485, N-(5-(N-(2-fluoro-6-methylphenyl)sulfamoyl)-6-methoxypyridin-3-yl)-2-phenyloxazole-4-carboxamide]	< 10	119 to 159
COc1ncc(NC(=O)c2csc3c2CCCCC3)cc1S(=O)(=O)Nc1c(C)cccc1C [compound 1486, N-(5-(N-(2,6-dimethylphenyl)sulfamoyl)-6-methoxypyridin-3-yl)-5,6,7,8-tetrahydro-4H-cyclohepta[b]thiophene-3-carboxamide]	< 10	160 to 199
COc1ncc(NC(=O)c2ncc(-c3ccccc3)o2)cc1S(=O)(=O)Nc1cc(F)c(F)cc1F [compound 1503]	20 to 100	160 to 199
COc1ncc(NC(=O)c2ncc(-c3ccccc3)o2)cc1S(=O)(=O)Nc1cc2ccccc2nc1C [compound 1511]	20 to 100	119 to 159
COc1ncc(NC(=O)c2ncc(-c3ccccc3)o2)cc1S(=O)(=O)Nc1cccc2cncc(C)c12 [compound 1513]	< 10	160 to 199
COc1ncc(NC(=O)c2ncc(-c3ccccc3)o2)cc1S(=O)(=O)Nc1ccc(F)cc1C(C)C [compound 1514]	< 10	160 to 199
COc1ncc(NC(=O)c2ncc(-c3ccccc3)o2)cc1S(=O)(=O)Nc1sc2c(c1C#N)CCCC2 [compound 1519]	10 to 20	160 to 199

SMILES	EC50 [µM]	Emax [%]
COc1ncc(NC(=O)c2ncc(-c3ccccc3)o2)cc1S(=O)(=O)Nc1ccc2cnoc2c1 [compound 1525]	20 to 100	200 to 300
COc1ncc(NC(=O)c2ncc(-c3ccccc3)o2)cc1S(=O)(=O)Nc1cc(F)c(C#N)cc1F [compound 1538]	20 to 100	119 to 159
CCc1cccc2sc(NS(=O)(=O)c3cc(NC(=O)c4ncc(-c5ccccc5)o4)cnc3OC)nc12 [compound 1552]	20 to 100	119 to 159
COc1ncc(NC(=O)c2ncc(-c3ccccc3)o2)cc1S(=O)(=O)Nc1cc(-c2ccccc2C)nn1C [compound 1567]	20 to 100	200 to 300
COc1ncc(NC(=O)c2ncc(-c3ccccc3)o2)cc1S(=O)(=O)Nc1cc(-c2ccc(C)cc2)nn1C [compound 1568]	20 to 100	200 to 300
COc1ncc(NC(=O)c2ncc(-c3ccccc3)o2)cc1S(=O)(=O)Nc1cc(C)n(C(C)C)n1 [compound 1571]	10 to 20	160 to 199
COc1ncc(NC(=O)c2ncc(-c3ccccc3)o2)cc1S(=O)(=O)Nc1cccc2cnc(C)cc12 [compound 1624]	10 to 20	160 to 199
COc1ncc(NC(=O)c2ncc(-c3ccccc3)o2)cc1S(=O)(=O)Nc1cc(C2CCCCC2)no1 [compound 1640]	10 to 20	160 to 199
CCCC(C)c1cc(NS(=O)(=O)c2cc(NC(=O)c3ncc(-c4ccccc4)o3)cnc2OC)on1 (stereo not drawn) [compound 1648]	20 to 100	119 to 159
COc1ncc(NC(=O)c2ncc(-c3ccccc3)o2)cc1S(=O)(=O)Nc1c(C)c(-c2ccccc2)nn1C [compound 1661]	20 to 100	160 to 199
COc1cccc(OC)c1NS(=O)(=O)c1cc(NC(=O)c2ncc(-c3ccccc3)o2)cnc1OC [compound 1706]	10 to 20	119 to 159
COc1ncc(NC(=O)c2csc(-c3ccccc3)n2)cc1S(=O)(=O)Nc1c(C)cnn1C [compound 1729]	20 to 100	119 to 159
COc1ncc(NC(=O)c2csc(-c3ccccc3)n2)cc1S(=O)(=O)Nc1cc(C(F)(F)F)n[nH]1 [compound 1746]	20 to 100	200 to 300
COc1ncc(NC(=O)c2csc(-c3ccccc3)n2)cc1S(=O)(=O)Nc1cc(C)n(C(C)C)n1 [compound 1754]	10 to 20	160 to 199
COCCOc1cc(NS(=O)(=O)c2cc(NC(=O)c3csc(-c4ccccc4)n3)cnc2OC)ccn1 [compound 1760]	20 to 100	119 to 159
COc1ncc(NC(=O)c2csc(-c3ccccc3)n2)cc1S(=O)(=O)Nc1cccn2nc(C)nc12 [compound 1768]	20 to 100	200 to 300
CCOc1cc(NS(=O)(=O)c2cc(NC(=O)c3csc(-c4ccccc4)n3)cnc2OC)ccn1 [compound 1773]	20 to 100	119 to 159
COc1ncc(NC(=O)c2csc(-c3ccccc3)n2)cc1S(=O)(=O)Nc1ccnc2cccnc12 [compound 1779]	20 to 100	119 to 159
